This series relates to New Zealand White rabbits. Particulars: rabbit, in vivo, sc. Here is the method:
100 female New Zealand White rabbits were tested according to the study design detailed below (Table 2). The vehicle/adjuvant and test article were administered via intramuscular injection. […] The pumps were surgically implanted subcutaneously. The dose volume of the test article and vehicle was 0.5 ml/kg. The dose rate of the pumps was approximately 5 μl/hr.
The test article and vehicle/adjuvant formulations were administered to the study animals once at 30 days prior to gestation, once at 9 days prior to gestation, and once on day 12 of gestation.

Structures are written as SMILES.

In the case of `CN1CCCC1c1cccnc1` (stereo not drawn) [Nicotine], the gestation food consumption entry is “significantly decreased” and the maternal body weight entry is on record as “decrease in maternal body weight”. Under “female, New Zealand White”, this molecule showed a Mortality of 3. For the same molecule, where the note is “female”, the “Number of Does: Abortion” value is 5, the “Number of Does: Found dead/euthanized in extremis” value worked out at 2, the “Number of Does: No. Delivered” value came out at 11 and the “Number of Does: No. Survived Day 28” value is reported as 6. Where the note is “female”, the “Number of Does: No. whole litters dead” value is on record as 4, the “Number of Does: Not Pregnant” value turned out to be 2, the “Number of Kits (Mean) LD 0-7” value came out at 47.8 and the “Number of Kits (Mean) LD 7-14” value was found to be 100.0. Further, for the setting “female”, the “Number of Kits (Mean) LD 14-21” value is recorded as 100.0; the “Number of Kits (Mean) LD 21-28” value was 100.0; the “mean lactation index, representing kit survival from lactation day 0-7” value was 47.8%; the “mean number of kits born” value was 6.8 kits/liter.

For the origin of these results see patent publication US7547712B2 (priority 2006, dated 2009).
